Publication PMC6272428 (Molecules, 2015)

Columns and labels:
[1] = Pharmacokinetics of four compounds in plasma after oral administration of GSBXD and its plus-minus prescriptions in normal rats (LC-MS/MS); assay type: in vivo; conditions: Wistar, rat, normal rats, n = 6, mean ± S.D.
Procedure: Plasma samples (200 μL) and IS solution (50 μL, 1215 ng/mL for diphenhydramine, 476 ng/mL for chloromycetin) were added in an Eppendorf tube, and this mixture was extracted with methanol (550 μL) by shaking on a vortex-mixer for 2 min, and centrifuged for 10 min at 13,000 rpm. The contents were evaporated to dryness on a rotary evaporator at 37 °C. The residue was reconstituted in methanol (100 μL) and centrifuged (13,000 rpm for 10 min). The supernatant was transferred to an auto sample vail and an aliquot of 5 μL was injected onto the UPLC-MS/MS system for analysis.
The developed and validated method was applied to the pharmacokinetic evaluation of the four compounds after oral administration of different fractions to normal rats (Figure 3).
Raw materials of Glycyrrhiza uralensis Fisch (Gancao), Paeonia lactiflora Pall (Baishao), Pinellia ternata Breit (Banxia) in a weight ratio of 10:15:9 (50, 75 and 45 g) were crushed into small pieces. The mixture was refluxed with 1.7 L water for 1 h and with 1.36 L water for 1 h. The filtrates were combined and concentrated below 70 °C to obtain a certain volume at the ratio of 1.5:1 (w/w, weight of all constituting herbs and the extract filtrates) under vacuum. Powder of Euphorbia kansui T. N. Liou ex T. P. Wang. […] The same method was used to prepare GSBXD minus Gancao (GSBXD-GC); GSBXD minus Gansui (GSBXD-GS); GSBXD minus Gancao and Gansui (GSBXD-GG); the extract of Gancao and Gansui (GG) and the extract of Gancao (GC). The extracts contained 19.21, 18.73, 46.53, 15.82 μg/mL of compounds 1–4 in GSBXD; 0, 0, 51.03, 17.88 μg/mL of compounds 1–4 in GSBXD-GC; 19.21, 18.73, 46.53, 15.82 μg/mL of compounds 1–4 in GSBXD-GS; 0, 0, 51.03, 17.88 μg/mL of compounds 1–4 in GSBXD-GG; 20.03, 17.09, 0, 0 μg/mL of compounds 1–4 in GG, 20.03, 17.09, 0, 0 μg/mL of compounds 1–4 in GC.
For pharmacokinetic studies, Wistar rats were divided into ten groups (n = 6 per group). Rats in the normal and model GSBXD groups were administered GSBXD at a dose of 15 mL/kg intragastrically. In the normal and model GSBXD-GC groups, GSBXD-GC (12 mL/kg) was administrated. In the normal and model GSBXD-GS groups, GSBXD-GS (15 mL/kg) was administrated. In the normal and model GSBXD-GC-GS groups, GSBXD-GC-GS (12 mL/kg) was administrated. In the normal and model GG groups, GG (7.5 mL/kg) was administrated. Blood samples were collected at specific time points before (0 min) and after oral administration (5, 10, 20, 40, 60, 120, 240, 360, 480, 600 and 1440 min). A total of 720 blood samples were collected. All the blood samples were immediately centrifuged at 2500 rpm for 10 min to obtain plasma, which was labeled and frozen at −80 °C until analysis. Blank plasma was obtained from the rats without oral administration and was used to investigate the assay development and validation.
To determine the pharmacokinetic parameters of compounds 1–4 in different groups, concentration–time data were analyzed by DAS 3.2 software (Mathematical Pharmacology Professional Committee of China, Shanghai, China, 2011). Data were expressed as the mean […] standard deviation (S.D.) with triplicate measurements. The identification of significances between different groups was carried out with Student’s t-test. A P value < 0.05 was considered statistically significant.

[2] = Stability of the four compounds in rat plasma QC samples (freeze-thaw, storage at −80 °C, autosampler); assay type: physicochemical; conditions: for Stability, Autosampler for 24 h, Accuracy: processed rat plasma, auto-sampler 4 °C for 24 h; for Stability, Freeze-thaw cycles, Accuracy / Stability, At −80 °C for a Month, Accuracy: rat plasma; for Stability, Freeze-thaw cycles, Accuracy: three freeze-thaw cycles −80 °C to 20 °C
Procedure: Stability of the four analytes during the sample storing and processing procedures was fully evaluated by analysis of QC samples.
Three QC samples (five samples for each) were tested for pre-treatment, post-treatment, three freeze-thaw cycles and long-term stabilities. Pre-treatment stability was assessed by exposing QC samples at room temperature for 4 h. Post-treatment stability was evaluated by placing QC samples in the auto-sampler at 4 °C for 24 h. For freeze–thaw cycle stability assessment, QC samples were repeatedly frozen and thawed for three cycles from −80 °C to 20 °C. […]

[3] = 7.5 mL/kg, group GG (extract of Gancao and Gansui), 7.5 mL/kg oral
[4] = 15 mL/kg, group GSBXD, 15 mL/kg intragastrically
[5] = 15 mL/kg, group GSBXD-GS (GSBXD minus Gansui), 15 mL/kg oral
[6] = group GC (extract of Gancao), oral
[7] = high QC concentration (1.23 × 10^3, 1.11 × 10^3, 1.14 × 10^3, 1.42 × 10^3 ng/mL for 1–4)
[8] = low QC concentration (1.91 × 10, 4.32, 1.78 × 10, 1.11 × 10 ng/mL for 1–4)
[9] = middle QC concentration (3.09 × 10^2, 1.38 × 10^2, 1.43 × 10^2, 1.77 × 10^2 ng/mL for 1–4)

SMILES	AUC(0-t) [1, 3] [ng·h/mL]	Cmax [1, 3] [ng/mL]	Tmax [1, 3] [h]	half-life [1, 3] [h]	AUC(0-t) [1, 4] [ng·h/mL]	Cmax [1, 4] [ng/mL]	Tmax [1, 4] [h]	half-life [1, 4] [h]	AUC(0-t) [1, 5] [ng·h/mL]	Cmax [1, 5] [ng/mL]	Tmax [1, 5] [h]	half-life [1, 5] [h]	AUC(0-t) [1, 6] [ng·h/mL]	Cmax [1, 6] [ng/mL]	Tmax [1, 6] [h]	half-life [1, 6] [h]	Stability, Autosampler for 24 h, Accuracy [2, 7] [%]	Stability, Autosampler for 24 h, Accuracy [2, 8] [%]	Stability, Autosampler for 24 h, Accuracy [2, 9] [%]	Stability, Freeze-thaw cycles, Accuracy [2, 7] [%]	further results
CC1(C)[C@@H](O[C@H]2O[C@H](C(=O)O)[C@@H](O)[C@H](O)[C@H]2O[C@@H]2O[C@H](C(=O)O)[C@@H](O)[C@H](O)[C@H]2O)CC[C@]2(C)[C@H]3C(=O)C=C4[C@@H]5C[C@@](C)(C(=O)O)CC[C@]5(C)CC[C@@]4(C)[C@]3(C)CC[C@@H]12 [Compound 1, glycyrrhizinic acid]	788 ± 110	364 ± 46.2	0.64 ± 0.34	9.29 ± 4.7	2630 ± 532	503 ± 199	0.33	5.93 ± 2.67	1280 ± 393	214 ± 55.4	1.67 ± 0.12	11.6 ± 5.74	486 ± 136	147 ± 19.9	0.36 ± 0.16	0.79 ± 0.39	87.36	93.94	92.23	94.33	Stability, Freeze-thaw cycles, Accuracy [2, 8]: 98.83%; Stability, Freeze-thaw cycles, Accuracy [2, 9]: 91.02%; Stability, At −80 °C for a Month, Accuracy [2, 7]: 98.18%; Stability, At −80 °C for a Month, Accuracy [2, 8]: 89.99%; Stability, At −80 °C for a Month, Accuracy [2, 9]: 91.37%
O=C1C[C@@H](c2ccc(O[C@@H]3O[C@H](CO)[C@@H](O)[C@H](O)[C@H]3O)cc2)Oc2cc(O)ccc21 [Compound 2, liquiritin]	788 ± 110	200 ± 42.4	0.32 ± 0.27	12.9 ± 4.76	794 ± 142	193 ± 84.5	0.39 ± 0.14	7.04 ± 2.99	421 ± 222	98.9 ± 26.8	0.17 ± 0.11	6.84 ± 3.11	797 ± 174	139 ± 33.5	0.5 ± 0.18	5.26 ± 1.93	97.11	88.92	97.49	95.35	Stability, Freeze-thaw cycles, Accuracy [2, 9]: 89.99%; Stability, At −80 °C for a Month, Accuracy [2, 7]: 96.71%; Stability, At −80 °C for a Month, Accuracy [2, 8]: 91.03%; Stability, At −80 °C for a Month, Accuracy [2, 9]: 99.99%
